Here are results for eleven compounds from patent US10722501B2 (BAYER AKTIENGESELLSCHAFT, priority 2016, dated 2020).

In general, pIC50 refers to the IC50 on a negative log10 scale, so that one unit is a factor of ten.

pIC50: −log10 of the molar value.

For the assay, the target named is T1, recombinant full-length human prolyl endopeptidase (PREP) (Homo sapiens, UniProt P48147).
T1 construct: To recombinant full-length human prolyl endopeptidase (PREP, R&D-Systems, 4308-SE); purchased R&D-Systems 4308-SE
T1 sequence (P48147 1-710): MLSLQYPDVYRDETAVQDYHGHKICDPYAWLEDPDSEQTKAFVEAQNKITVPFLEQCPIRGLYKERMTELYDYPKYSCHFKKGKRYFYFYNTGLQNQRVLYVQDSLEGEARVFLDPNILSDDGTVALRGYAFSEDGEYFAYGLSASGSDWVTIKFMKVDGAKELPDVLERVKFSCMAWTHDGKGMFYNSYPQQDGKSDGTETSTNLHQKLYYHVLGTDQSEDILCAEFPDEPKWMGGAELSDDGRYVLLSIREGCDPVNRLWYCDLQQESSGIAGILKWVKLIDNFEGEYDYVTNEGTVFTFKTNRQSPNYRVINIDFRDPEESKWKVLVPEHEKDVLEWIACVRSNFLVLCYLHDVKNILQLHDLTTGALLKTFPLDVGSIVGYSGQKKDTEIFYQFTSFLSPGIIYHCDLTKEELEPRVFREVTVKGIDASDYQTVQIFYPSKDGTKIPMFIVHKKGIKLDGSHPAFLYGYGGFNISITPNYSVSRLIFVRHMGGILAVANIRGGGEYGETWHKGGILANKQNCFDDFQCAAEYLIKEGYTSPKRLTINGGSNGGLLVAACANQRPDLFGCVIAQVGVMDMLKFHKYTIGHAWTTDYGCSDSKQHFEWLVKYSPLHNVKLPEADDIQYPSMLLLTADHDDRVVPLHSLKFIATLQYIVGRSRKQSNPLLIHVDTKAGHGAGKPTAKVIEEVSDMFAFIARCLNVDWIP
In words: Biochemical human prolyl endopeptidase (PREP) assay with fluorescently labelled substrate. To be noted: substrate Z-Gly-Pro-AMC 50 μM, 32° C., 60 min; some as mean values from multiple independent determinations. The essentials: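 0.4 nM (final, example) recombinant PREP in pH 7.5 Tris buffer with EDTA, GSH, BSA and Brij-35; compounds at 1 nM to 30 μM. Reaction started with 50 μM Z-Gly-Pro-AMC and followed by fluorescence (ex 360/em 465 nm) at 32° C for 60 min. IC50 interpolated from percent activity based on initial slopes.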
With `O=C([C@@H]1CCCc2nn(Cc3ccc(C(F)(F)F)c(F)c3)c(=O)n21)N1CCC(F)(F)C1` [Example 470, (5S)-5-[(3,3-Difluoropyrrolidin-1-yl)carbonyl]-2-[3-fluoro-4-(trifluoromethyl)benzyl]-5,6,7,8-tetrahydro[1,2,4]triazolo[4,3-a]pyridin-3(2H)-one], the pIC50 is 9.09.

Take `Cc1ccc(Cn2nc3n(c2=O)[C@H](C(=O)N2CCC4CC42)CCC3)cc1` (single isomer, unassigned) [Example 189]: the pIC50 was 7.47.

For the compound `O=C([C@@H]1CCCc2nn(Cc3ccc(Cl)nc3)c(=O)n21)N1CC(F)C(F)C1` (mixture of isomers) [Example 550, (5S)-2-[(6-Chloropyridin-3-yl)methyl]-5-{[trans-3,4-difluoropyrrolidin-1-yl]carbonyl}-5,6,7,8-tetrahydro[1,2,4]triazolo[4,3-a]pyridin-3(2H)-one], the negative-log IC50 (pIC50) was 7.74. Under `O=C(C1CC(C(F)(F)F)Cc2nn(Cc3ncc(F)cc3Cl)c(=O)n21)N1CCC(F)(F)C1` (single isomer, unassigned) [Example 576, (5RS,7RS)-2-[(3-Chloro-5-fluoropyridin-2-yl)methyl]-5-[(3,3-difluoropyrrolidin-1-yl)carbonyl]-7-(trifluoromethyl)-5,6,7,8-tetrahydro[1,2,4]triazolo[4,3-a]pyridin-3(2H)-one] stands 8.06; under `O=C(C1CCc2nn(Cc3ccc(Cl)nc3)c(=O)n21)N1CCC(F)(F)C1` (racemic) [Example 166, (5RS)-2-[(6-Chloropyridin-3-yl)methyl]-5-[(3,3-difluoropyrrolidin-1-yl)carbonyl]-2,5,6,7-tetrahydro-3H-pyrrolo[2,1-c][1,2,4]triazol-3-one], 7.66; under `O=C(C1CC(C(F)(F)F)Cc2nn(Cc3ncc(F)cc3F)c(=O)n21)N1CCC(F)(F)C1` (single isomer, unassigned) [Example 574, (5RS,7RS)-2-[(3,5-Difluoropyridin-2-yl)methyl]-5-[(3,3-difluoropyrrolidin-1-yl)carbonyl]-7-(trifluoromethyl)-5,6,7,8-tetrahydro[1,2,4]triazolo[4,3-a]pyridin-3(2H)-one], 8.28. Consider `O=C(C1CC(C(F)(F)F)Cc2nn(Cc3ccc(Cl)nc3)c(=O)n21)N1CC(F)C1` (single isomer, unassigned) [Example 238, (5RS,7RS)-2-[(6-Chloropyridin-3-yl)methyl]-5-[(3-fluoroazetidin-1-yl)carbonyl]-7-(trifluoromethyl)-5,6,7,8-tetrahydro[1,2,4]triazolo[4,3-a]pyridin-3(2H)-one], for which the pIC50 is 7.14. For the compound `O=C([C@@H]1CCCc2nn(Cc3nc(C(F)(F)F)no3)c(=O)n21)N1CCC(F)(F)C1` [Example 501, (5S)-5-[(3,3-Difluoropyrrolidin-1-yl)carbonyl]-2-{[3-(trifluoromethyl)-1,2,4-oxadiazol-5-yl]methyl}-5,6,7,8-tetrahydro[1,2,4]triazolo[4,3-a]pyridin-3(2H)-one], the pIC50 is 7.59. For `O=C(C1CCc2nn(Cc3ccnc(C(F)(F)F)c3F)c(=O)n21)N1CC[C@H](F)C1` (single isomer, unassigned) [Example 179], the pIC50 is 6.22. `O=C(C1C(C(F)(F)F)CCc2nn(Cc3ncc(Cl)cc3Cl)c(=O)n21)N1CC[C@H](F)C1` (mixture of isomers) [Example 282, (5RS,6RS)-2-[(3,5-Dichloropyridin-2-yl)methyl]-5-{[(3S)-3-fluoropyrrolidin-1-yl]carbonyl}-6-(trifluoromethyl)-5,6,7,8-tetrahydro[1,2,4]triazolo[4,3-a]pyridin-3(2H)-one]: the pIC50 was 7.82.

For the compound `O=C(C1C(C(F)(F)F)CCc2nn(Cc3ccc(Cl)cn3)c(=O)n21)N1CC(F)C1` (single isomer, unassigned) [Example 311, (5RS,6RS)-2-[(5-Chloropyridin-2-yl)methyl]-5-[(3-fluoroazetidin-1-yl)carbonyl]-6-(trifluoromethyl)-5,6,7,8-tetrahydro[1,2,4]triazolo[4,3-a]pyridin-3(2H)-one], the pIC50 is 7.52.
